Data published in article PMC8952364, “Polyphenols as Inhibitors of Antibiotic Resistant Bacteria—Mechanisms Underlying Rutin Interference with Bacterial Virulence” (Pharmaceuticals, 2022).
Values after ≈ are worked out from the molar mass of the structure shown. Like-named read-outs stand apart in the source and are kept apart here. Blank lines part the entries; values can stand above or below the molecule they belong to.

Tests used:
[1] = tested on: S. infantis 1371/1; test: Antimicrobial microdilution assay (MIC/MBC); assay type: cell-based, Salmonella Infantis; conditions: for MIC: 37 °C, 24 h; for MBC: subcultivation, 24 h at 37 °C
Procedure: (§1) The bacterial suspension (0.5 Mc Farland) was prepared, and twenty-fold dilutions of these suspensions were mixed in a 1:10 ratio with the corresponding polyphenol dilution (0.0039–1 mg/mL). Microtiter plates were incubated at 37 °C for 24 h. The lowest concentrations without visible growth (under a binocular microscope) were defined as MICs. The bactericidal concentrations (MBCs) were determined by serial subcultivation of 2 μL of the well’s content and further incubation for 24 h at 37 °C. Streptomycin (SigmaAldrich, Darmstadt, Germany) was used as a positive control. The polyphenols were obtained from Extrasynthese, Rhone, France (rutin, isoquercitrin) and SigmaAldrich, Germany (hesperetin, hesperidin, naringenin, naringin, taxifolin, morin, chlorogenic acid, ferulic acid, p-coumaric acid, and gallic acid). The stock compounds were prepared in ethanol (30%), and adequate ethanol concentrations were used as the negative control in the assays. Experiments were done in triplicate.

[2] = tested on: E. coli (0157:H7 ATCC 51659); design: method as in PMID 34073447; conditions: cited from earlier work
[3] = tested on: HaCaT cells; test: Cytotoxicity in HaCaT cell line (crystal violet assay); assay type: cell-based, human; conditions: HaCaT
Procedure: For determination of the polyphenols’ cytotoxic effect, a crystal violet assay was used, with modifications. The cytotoxic effect of polyphenols was analyzed on spontaneously immortalized human skin keratinocytes (HaCaT, AddexBio No. T0020001, San Diego, CA, USA) cell lines. […] Cells (1 × 10^4 cells/well) were seeded in a 96-well plate (Sarstedt, Nümbrecht, Germany) 24 h before treatment. […] Cells were incubated with the compounds for 24 h. […] After crystal violet was removed, the plates were washed in a stream of tap water and left to air-dry at room temperature for 24 h. The absorbance was measured in a microplate reader (Multiskan™ FC Microplate Photometer, Thermo Scientific™) at 590 nm. The results were expressed as IC50 value in μg/mL. The criterion used to categorize the cytotoxic activity polyphenols was as follows: […] All analyses were performed in triplicate; each replicate was also quantified three times. Data were expressed as mean standard deviation, where applicable.

[4] = tested on: P. aeruginosa IBRS P001 biofilm; test: Crystal violet antibiofilm assay (biofilm formation); assay type: cell-based, Pseudomonas aeruginosa; conditions: MIC and sub-MIC, 24 h, crystal violet, Figure 1
Procedure: After incubation, each well was washed twice with sterile PBS (phosphate-buffered saline, pH 7.4) and fixed with methanol for 10 min. After removal of methanol the plate was air-dried. The biofilm was stained with 0.1% crystal violet (Bio-Merieux, Marcy l’Etoile, France) for 30 min. The plate was washed with water, air dried, and the stain was dissolved with 200 μL of 96% ethanol (Zorka, Sabac, Serbia). The absorbance was read at 620 nm on a Multiskan™ FC microplate photometer (Thermo Scientific™, Waltham, MA, USA). The results are presented as biofilm forming capacity (%) compared to control.

[5] = tested on: S. aureus (ATCC 25923); design: method as in PMID 34073447; conditions: cited from earlier work
[6] = tested on: K. pneumoniae IT977; test: Antimicrobial microdilution assay (MIC/MBC); assay type: cell-based, Klebsiella pneumoniae; conditions: for MIC: 37 °C, 24 h; for MBC: subcultivation, 24 h at 37 °C
Procedure: as §1

[7] = tested on: K. pneumoniae Ni9; test: Antimicrobial microdilution assay (MIC/MBC); assay type: cell-based, Klebsiella pneumoniae; conditions: for MIC: 37 °C, 24 h; for MBC: subcultivation, 24 h at 37 °C
Procedure: as §1

[8] = tested on: E. coli IBRS E003; test: Antimicrobial microdilution assay (MIC/MBC); assay type: cell-based, Escherichia coli; conditions: for MIC: 37 °C, 24 h; for MBC: subcultivation, 24 h at 37 °C
Procedure: as §1

[9] = tested on: E. coli IMD989; test: Antimicrobial microdilution assay (MIC/MBC); assay type: cell-based, Escherichia coli; conditions: for MIC: 37 °C, 24 h; for MBC: subcultivation, 24 h at 37 °C
Procedure: as §1

[10] = tested on: A. baumannii 6077/12; test: Antimicrobial microdilution assay (MIC/MBC); assay type: cell-based, Acinetobacter baumannii; conditions: for MIC: 37 °C, 24 h; for MBC: subcultivation, 24 h at 37 °C
Procedure: as §1

[11] = tested on: A. baumannii S2/2; test: Antimicrobial microdilution assay (MIC/MBC); assay type: cell-based, Acinetobacter baumannii; conditions: for MIC: 37 °C, 24 h; for MBC: subcultivation, 24 h at 37 °C
Procedure: as §1

[12] = tested on: Methicillin resistant S. aureus IBRS MRSA 011; test: Antimicrobial microdilution assay (MIC/MBC); assay type: cell-based, Staphylococcus aureus; conditions: for MBC: subcultivation, 24 h at 37 °C
Procedure: as §1

[13] = tested on: eleven antibiotic resistant strains of bacteria; test: Antimicrobial assay, summary over the examined strains; assay type: cell-based; conditions: summary of Table 1
Procedure: as §1

[14] = tested on: P. aeruginosa IBRS P001; test: Antimicrobial microdilution assay (MIC/MBC); assay type: cell-based, Pseudomonas aeruginosa; conditions: for MIC: 37 °C, 24 h; for MBC: subcultivation, 24 h at 37 °C
Procedure: as §1

[15] = tested on: P. aeruginosa MMA83; test: Antimicrobial microdilution assay (MIC/MBC); assay type: cell-based, Pseudomonas aeruginosa; conditions: for MIC: 37 °C, 24 h; for MBC: subcultivation, 24 h at 37 °C
Procedure: as §1

[16] = tested on: A. xylosoxidans 37F; test: Antimicrobial microdilution assay (MIC/MBC); assay type: cell-based, Achromobacter xylosoxidans; conditions: for MIC: 37 °C, 24 h; for MBC: subcultivation, 24 h at 37 °C
Procedure: as §1

[17] = tested on: P. aeruginosa (NRRLB-272); design: method as in PMID 34073447; conditions: cited from earlier work
[18] = tested on: MRSA T144; design: method as in PMID 31385700; conditions: cited from earlier work

SMILES: COc1ccc([C@@H]2CC(=O)c3c(O)cc(O[C@@H]4O[C@H](CO[C@@H]5O[C@@H](C)[C@H](O)[C@@H](O)[C@H]5O)[C@@H](O)[C@H](O)[C@H]4O)cc3O2)cc1O [Hesperidin, hesperidin]
MIC [1]: >1000 µg/mL | MBC [1]: >1000 µg/mL | MIC [2]: 1130 µg/mL (≈ 1850 µM) | cytotoxicity towards HaCaT, in words ([3]; 24 h): non-cytotoxic properties | IC50 (compound concentration that inhibited 50% of the cell growth) ([3]; 24 h treatment, crystal violet): >1000 µg/mL | cytotoxicity category ([3]; maximal tested concentrations (1 mg/mL)): no cytotoxicity (IC50 > 501 µg/mL = no cytotoxicity) | reduction of biofilm formation (biomass), in words [4]: significant (****, p < 0.0001) reduction | MIC [5]: 1530 µg/mL (≈ 2510 µM) | MIC [6]: 1000 µg/mL (≈ 1640 µM) | MBC [6]: 1000 µg/mL (≈ 1640 µM) | MIC [7]: 1000 µg/mL (≈ 1640 µM) | MBC [7]: 1000 µg/mL (≈ 1640 µM) | MIC [8]: >1000 µg/mL | MBC [8]: >1000 µg/mL | MIC [9]: >1000 µg/mL | MBC [9]: >1000 µg/mL | MIC [10]: 500 µg/mL (≈ 819 µM) | MBC [10]: 500 µg/mL (≈ 819 µM) | MIC [11]: 500 µg/mL (≈ 819 µM) | MBC [11]: 500 µg/mL (≈ 819 µM) | MIC ([12]; 37 °C, 24 h): 500 µg/mL (≈ 819 µM) | MBC [12]: 1000 µg/mL (≈ 1640 µM) | MIC towards a range of antibiotic-resistant bacterial strains [13]: ≥ 500 µg/mL | MIC [14]: 500 µg/mL (≈ 819 µM) | MBC [14]: 1000 µg/mL (≈ 1640 µM) | MIC [15]: 1000 µg/mL (≈ 1640 µM) | MBC [15]: 1000 µg/mL (≈ 1640 µM) | MIC [16]: 1000 µg/mL (≈ 1640 µM) | MBC [16]: 1000 µg/mL (≈ 1640 µM) | MIC [17]: 1270 µg/mL (≈ 2080 µM)

MIC ([1]; Salmonella enterica, 1371/1, read-out: MIC): > 1000 µg/mL | MIC ([6]; Klebsiella pneumoniae, IT977, read-out: MIC): > 1000 µg/mL | MIC ([7]; Klebsiella pneumoniae, NI9, read-out: MIC): 500 µg/mL (≈ 1650 µM) | MIC ([8]; Escherichia coli, IBRSE003, read-out: MIC): 250 µg/mL (≈ 827 µM) | MIC ([9]; Escherichia coli, IMD989, read-out: MIC): > 1000 µg/mL | MIC ([10]; Acinetobacter baumannii, 6077/12, read-out: MIC): 500 µg/mL (≈ 1650 µM) | MIC ([11]; Acinetobacter baumannii, S2/2, read-out: MIC): 500 µg/mL (≈ 1650 µM) | MIC ([12]; Staphylococcus aureus, MRSA, 37 °C, 24 h, read-out: MIC): 120 µg/mL (≈ 397 µM) | MIC ([12]; Staphylococcus aureus, MRSA, restated in the discussion, read-out: MIC): 125 µg/mL (≈ 414 µM) | MIC ([14]; Pseudomonas aeruginosa, IBRSP001, read-out: MIC): 120 µg/mL (≈ 397 µM) | MIC ([15]; Pseudomonas aeruginosa, MMA83, read-out: MIC): 1000 µg/mL (≈ 3310 µM) | MIC ([16]; Achromobacter xylosoxidans, 37F, read-out: MIC): 500 µg/mL (≈ 1650 µM)
SMILES: O=c1c(O)c(-c2ccc(O)cc2O)oc2cc(O)cc(O)c12 [Morin, morin]
MBC ([1]; Salmonella enterica, 1371/1, read-out: MBC): > 1000 µg/mL | IC50 ([3]; Homo sapiens, 24 h treatment, crystal violet, read-out: IC50 (compound concentration that inhibited 50% of the cell growth)): 347 ± 16 µg/mL (≈ 1150 µM) | MBC ([6]; Klebsiella pneumoniae, IT977, read-out: MBC): > 1000 µg/mL | MBC ([7]; Klebsiella pneumoniae, NI9, read-out: MBC): 1000 µg/mL (≈ 3310 µM) | MBC ([8]; Escherichia coli, IBRSE003, read-out: MBC): 500 µg/mL (≈ 1650 µM) | MBC ([9]; Escherichia coli, IMD989, read-out: MBC): > 1000 µg/mL | MBC ([10]; Acinetobacter baumannii, 6077/12, read-out: MBC): 500 µg/mL (≈ 1650 µM) | MBC ([11]; Acinetobacter baumannii, S2/2, read-out: MBC): 500 µg/mL (≈ 1650 µM) | MIC [18]: 32 µg/mL (≈ 106 µM) | MBC ([12]; Staphylococcus aureus, MRSA, read-out: MBC): 250 µg/mL (≈ 827 µM) | MBC ([14]; Pseudomonas aeruginosa, IBRSP001, read-out: MBC): 250 µg/mL (≈ 827 µM) | MBC ([15]; Pseudomonas aeruginosa, MMA83, read-out: MBC): 1000 µg/mL (≈ 3310 µM) | MBC ([16]; Achromobacter xylosoxidans, 37F, read-out: MBC): 1000 µg/mL (≈ 3310 µM)
